The results in this text go back to DBAASP.

Test systems include Escherichia coli K99; Escherichia coli UB1005; Escherichia coli K88; Escherichia coli 078; Staphylococcus aureus; Bacillus subtilis 168; Escherichia coli B; Pseudomonas aeruginosa; Bacillus cereus; Shigella dysenteriae.
Common to all, as to experiment: ≥ marks a high value that may be exact or a test limit, other limits are often not marked, values filed in µg/mL are converted to µM
For assay [1], the system named is Escherichia coli ATCC 25922.
The subject of assay [2] is Candida parapsilosis CGMCC 2.3989.
Assay [3] deals with Staphylococcus aureus ATCC 25923.
In assay [4] the test system is Salmonella enterica subsp. enterica serovar Pullorum ATCC 7913.
Assay [5] deals with Pseudomonas aeruginosa ATCC 27853.
The subject of assay [6] is Salmonella enterica subsp. enterica serovar Typhimurium ATCC 14028.
Assay [7] concerns Staphylococcus epidermidis ATCC 12228.
Assay [8] concerns Candida albicans CGMCC 2.2086.
Assay [9] has as its system Staphylococcus aureus ATCC 43300.
Assay [10] has as its system Staphylococcus aureus ATCC 29213.
The subject of assay [11] is Candida tropicalis CGMCC 2.1975.
Assay [12] has as its system Salmonella enterica subsp. enterica serovar Typhimurium C77-31.
In assay [13] the test system is Streptococcus sanguinis NY101.
Assay [14] concerns Pseudomonas aeruginosa PAK.
Assay [15] relates to Streptococcus mutans UA159.
Assay [16] deals with Streptococcus gordonii Challis DL1.
Assay [17] relates to Streptococcus mitis ATCC 903.
Assay [18] has as its system Staphylococcus aureus ATCC 2592.
The test system of assay [19] is Candida albicans ATCC 2002.
For assay [20], the system named is Staphylococcus aureus SAP 0017.

Structures are written as SMILES. In brackets after ≈: the same amount, converted by molar mass. Several values for one entry are separate records, joined by “and”; a condition that tells them apart may be missing. Equal values may be shown once. Where only a bound is given, the exact number is not on record here.

In general, MIC refers to the lowest concentration that inhibits growth of the organism. Low values mean a more susceptible organism, high ones a less susceptible organism.

Regarding `CC[C@H](C)[C@H](NC(=O)[C@H](CCCN=C(N)N)NC(=O)[C@H](C)NC(=O)[C@H](C)N)C(=O)N[C@H](C(=O)N[C@@H](CC(C)C)C(=O)N[C@@H](CCCN=C(N)N)C(=O)N[C@@H](CC(=O)O)C(=O)N[C@@H](CCCN=C(N)N)C(=O)N[C@@H](Cc1ccccc1)C(=O)N[C@@H](CCCN=C(N)N)C(N)=O)[C@@H](C)CC` [AARIILRDRFR], the MIC in [1] is over 128 µM; in the assay with Escherichia coli K99, at least 128 µM; in [2], at least 128 µM; in assay [3] it was over 128 µM; in [4], at least 128 µM; in assay [5] it was over 128 µM. For the same compound, the MIC against Escherichia coli UB1005 is at least 128 µM; in assay [6], over 128 µM; in assay [7], over 128 µM; in assay [8], at least 128 µM; with Escherichia coli K88, at least 128 µM; with Escherichia coli 078 it was at least 128 µM. Further, the minimum inhibitory concentration (MIC) was over 128 µM in [9], over 128 µM in assay [10], at least 128 µM in assay [11] and at least 128 µM in [12].
For the compound `CC[C@H](C)[C@H](NC(=O)[C@H](Cc1ccccc1)NC(=O)[C@H](Cc1cnc[nH]1)NC(=O)[C@H](CCCCN)NC(=O)[C@@H](NC(=O)[C@@H](N)Cc1ccccc1)[C@@H](C)CC)C(=O)N[C@@H](Cc1cnc[nH]1)C(=O)N[C@@H](CCCN=C(N)N)C(=O)N[C@@H](Cc1ccccc1)C(=O)N[C@@H](CO)C(=O)N[C@@H](C)C(=O)N[C@H](C(=O)N[C@@H](CCCN=C(N)N)C(=O)N[C@@H](Cc1c[nH]c2ccccc12)C(=O)N[C@@H](CCCN=C(N)N)C(=O)N[C@@H](CCCN=C(N)N)C(=O)N[C@@H](CC(C)C)C(=O)N[C@@H](CC(C)C)C(=O)N[C@@H](CCCCN)C(=O)N[C@@H](CCCCN)C(=O)N[C@@H](CC(C)C)C(=O)N[C@@H](Cc1cnc[nH]1)C(=O)N[C@@H](Cc1cnc[nH]1)C(=O)N[C@@H](CC(C)C)C(=O)N[C@@H](CC(C)C)C(=O)N[C@@H](Cc1cnc[nH]1)C(N)=O)[C@@H](C)O` [FIKHFIHRFSATRWRRLLKKLHHLLH], the MIC in assay [13] was 9.43 µM (≈ 32 µg/mL); in [14] it was 9.43 µM (≈ 32 µg/mL); against Staphylococcus aureus, 4.72 µM (≈ 16 µg/mL); in [15] it was 4.72 µM (≈ 16 µg/mL); in assay [16], 9.43 µM (≈ 32 µg/mL); in assay [17], 9.43 µM (≈ 32 µg/mL).
Take `CC[C@H](C)[C@H](NC(=O)[C@H](Cc1ccccc1)NC(=O)[C@H](Cc1cnc[nH]1)NC(=O)[C@H](CCCCN)NC(=O)[C@@H](NC(=O)[C@@H](N)Cc1ccccc1)[C@@H](C)CC)C(=O)N[C@@H](Cc1cnc[nH]1)C(=O)N[C@@H](CCCN=C(N)N)C(=O)N[C@@H](Cc1ccccc1)C(=O)N[C@@H](CO)C(=O)NCC(=O)NCC(=O)N[C@@H](CCCN=C(N)N)C(=O)N[C@@H](Cc1c[nH]c2ccccc12)C(=O)N[C@@H](CCCN=C(N)N)C(=O)N[C@@H](CCCN=C(N)N)C(=O)N[C@@H](CC(C)C)C(=O)N[C@@H](CC(C)C)C(=O)N[C@@H](CCCCN)C(=O)N[C@@H](CCCCN)C(=O)N[C@@H](CC(C)C)C(=O)N[C@@H](Cc1cnc[nH]1)C(=O)N[C@@H](Cc1cnc[nH]1)C(=O)N[C@@H](CC(C)C)C(=O)N[C@@H](CC(C)C)C(=O)N[C@@H](Cc1cnc[nH]1)C(N)=O` [FIKHFIHRFSGGRWRRLLKKLHHLLH]: the MIC in assay [13] worked out at 4.8 µM (≈ 16 µg/mL); in assay [14], 9.6 µM (≈ 32 µg/mL); against Staphylococcus aureus, 9.6 µM (≈ 32 µg/mL); in [15] it was 4.8 µM (≈ 16 µg/mL); in assay [16], 9.6 µM (≈ 32 µg/mL); in assay [17] it was 18.7 µM (≈ 62.5 µg/mL).
Take `CC[C@H](C)[C@H](NC(=O)[C@H](CC(C)C)NC(=O)[C@H](Cc1cnc[nH]1)NC(=O)CNC(=O)[C@@H]1CCCN1C(=O)[C@@H](NC(=O)[C@H](CCCCN)NC(=O)[C@H](CO)NC(=O)[C@H](Cc1c[nH]c2ccccc12)NC(=O)[C@H](CCSC)NC(=O)CN)[C@@H](C)CC)C(=O)N[C@@H](CCCN=C(N)N)C(N)=O` [GMWSKIPGHLIR]: the MIC in the assay on Staphylococcus aureus was over 100 µM; against Bacillus subtilis 168, at least 100 µM; in the assay with Escherichia coli B, 25 µM (≈ 34.8 µg/mL); with Pseudomonas aeruginosa it was over 100 µM.
In the case of `CC(C)C[C@H](NC(=O)[C@H](CC(C)C)NC(=O)[C@H](CCCCN)NC(=O)[C@H](CC(C)C)NC(=O)[C@H](CC(C)C)NC(=O)[C@H](CCC(N)=O)NC(=O)[C@H](CCCCN)NC(=O)[C@H](CC(C)C)NC(=O)[C@H](CC(C)C)NC(=O)[C@H](CCC(N)=O)NC(=O)[C@@H](N)CC(C)C)C(=O)N[C@@H](CCCCN)C(=O)N[C@@H](CCC(N)=O)C(=O)N[C@@H](Cc1ccccc1)C(N)=O` [LQLLKQLLKLLKQF], the MIC was 4.63 µM (≈ 8 µg/mL) in assay [13]; 4.63 µM (≈ 8 µg/mL) in assay [14]; 9.27 µM (≈ 16 µg/mL) against Staphylococcus aureus; 4.63 µM (≈ 8 µg/mL) in assay [15]; 4.63 µM (≈ 8 µg/mL) in assay [16]; 9.27 µM (≈ 16 µg/mL) in assay [17].
Take `CSCC[C@@H]1NC(=O)[C@H](CC(C)C)NC(=O)[C@H](C)NC(=O)[C@H](CCCN=C(N)N)NC(=O)[C@H](CC(N)=O)NC(=O)[C@@H](NC(=O)[C@H](CCCCN)NC(=O)[C@H](CC(N)=O)NC(=O)[C@H](CCCN=C(N)N)NC(=O)[C@@H]2CCCN2C(=O)[C@H](CCSC)NC(=O)[C@H](CO)NC(=O)[C@H](CC(C)C)NC(=O)[C@H](C)NC(=O)[C@@H](N)CC(N)=O)CSSC[C@@H](C(=O)N[C@@H](Cc2ccccc2)C(=O)NCC(=O)O)NC1=O` [NALSMPRNKCNRALMCFG]: the MIC was 6.17 µM (≈ 12.5 µg/mL) in the assay on Bacillus cereus; 6.17 µM (≈ 12.5 µg/mL) in [18]; 24.7 µM (≈ 50 µg/mL) in [1]; 3.08 µM (≈ 6.24 µg/mL) in the assay with Shigella dysenteriae; 3.08 µM (≈ 6.24 µg/mL) in assay [19]; 6.17 µM (≈ 12.5 µg/mL) with Pseudomonas aeruginosa.
Consider `CC[C@H](C)[C@H](NC(=O)[C@H](Cc1ccccc1)NC(=O)[C@H](Cc1cnc[nH]1)NC(=O)[C@H](CCCCN)NC(=O)[C@@H](NC(=O)[C@H](Cc1ccccc1)NC(=O)[C@@H](NC(=O)[C@H](C)NC(=O)[C@H](CO)NC(=O)[C@H](Cc1cnc[nH]1)NC(=O)[C@H](CC(C)C)NC(=O)[C@H](CC(C)C)NC(=O)[C@H](Cc1cnc[nH]1)NC(=O)[C@H](Cc1cnc[nH]1)NC(=O)[C@H](CC(C)C)NC(=O)[C@H](CCCCN)NC(=O)[C@H](CCCCN)NC(=O)[C@H](CC(C)C)NC(=O)[C@H](CC(C)C)NC(=O)[C@H](CCCN=C(N)N)NC(=O)[C@H](CCCN=C(N)N)NC(=O)[C@H](Cc1c[nH]c2ccccc12)NC(=O)[C@@H](N)CCCN=C(N)N)[C@@H](C)O)[C@@H](C)CC)C(=O)N[C@@H](Cc1cnc[nH]1)C(=O)N[C@@H](CCCN=C(N)N)C(=O)N[C@@H](Cc1ccccc1)C(N)=O` [RWRRLLKKLHHLLHSATFIKHFIHRF], for which the MIC in [13] was 4.72 µM (≈ 16 µg/mL); in assay [14], 9.43 µM (≈ 32 µg/mL); against Staphylococcus aureus, 9.43 µM (≈ 32 µg/mL); in assay [15], 2.36 µM (≈ 8 µg/mL); in [16], 4.72 µM (≈ 16 µg/mL); in [17], 4.72 µM (≈ 16 µg/mL).
For the compound `CC[C@H](C)[C@H](NC(=O)[C@H](C)NC(=O)[C@H](CCCN=C(N)N)NC(=O)[C@H](CC(C)C)NC(=O)[C@@H](NC(=O)[C@H](CCCCN)NC(=O)[C@H](CC(C)C)NC(=O)[C@H](CC(C)C)NC(=O)[C@H](Cc1c[nH]c2ccccc12)NC(=O)[C@H](CCCCN)NC(=O)[C@@H](NC(=O)[C@@H](N)C(C)C)[C@@H](C)CC)[C@@H](C)CC)C(N)=O` [VIKWLLKILRAI], the MIC in assay [20] is 1 µM and 2 µM.
